Where two headings read alike, the source gives them in different places. Values belong to the molecule of their own block, whether it stands above or below them. Numbered stars: 1 amine (or outer) side, 2 acyl side, 3 side chain; on linkers, the order of the positions; unused ones are H or OH. Square brackets hold non-standard residues; d marks the D form. Ends that are not written are not given here. Peptide text beside a SMILES is read from it. * marks the point of attachment. X2 = O=C(OCC1c2cc(N[*:1])ccc2-c2ccc(S(=O)(=O)O)cc21)[*:2]; X1 = N[C@@H](CSC1CC(=O)N(CCC(=O)*)C1=O)C(=O)O; Nle = CCCC[C@H](N)C(=O)O
What was measured:
[1] = PK after single IV injection in rats; assay type: in vivo
Description: Blood samples were collected at 0.5, 2, 4, 8, 12, 24, 36, 48, 72, 96- and 120-hours post-dose administration.

[2] = 2-compartmental pharmacokinetic modelling (MONOLIX 2018R2); assay type: in vivo, rat; details: for half-life: rat, in vivo
Protocol: An in-depth PK modeling was performed to address the unexpected differences in half life, distribution, and pharmacological effect between V4, Cys-FMS-V4, and Apraglutide in the rat model. The analysis was performed with MONOLIX 2018R2 suite using a 2-compartmental pharmacokinetic model. The data used in this analysis was comprised from 3 independent experiments (data is presented as their average). The concentration versus time data of V4 that was formed from the Cys-FMS-V4 conjugate (the hydrolyzed peptide) was described appropriately using the values of the pharmacokinetic parameters of V4 peptide. Thus, the disposition of the hydrolyzed V4 was identical to that of the V4 peptide following the IV and SC administration.
The pharmacokinetics of Apraglutide in our studies was determined after SC administration. […] Based on this assumption, the values of volumes of distribution and clearance (Vpept, Vss, Vbeta, and CL) were calculated for Apraglutide (Table 13). The values of the other parameters of Apraglutide in Table 14 (the rate constants and the half-lives) are not dependent on this assumption.

[3] = PK after single SC injection in rats (LC-MS/MS); details: rat, in vivo, 2 mg/kg
Protocol: To support the pharmacodynamic effects of V4 and Cys-FMS-V4 as detailed in Example 9, a pharmacokinetic analysis was also conducted. In this study (Study reference 15204), all animals were injected SC on Day 1 with 2 mg/kg peptide content of V4, Cys-FMS-V4 and Apraglutide. Blood samples were collected at 2, 8, 12, 24, 36, 48, 72, 96, 120 hours, and Days 7, 8, 9, 10, 11, 12, 13 and 14 post-dose administration and subsequently taken to LC-MS/MS analysis to determine plasma levels of each compound. For Cys-FMS-V4, a 2-analyte method was applied to determine the plasma concentrations of both the full conjugate and the V4 that was hydrolyzed from it (V4 hydrolyzed). Plasma concentrations (μM), as measured by using the LC-MS/MS method, of V4 peptide, Cys-FMS-V4, hydrolyzed V4, and Apraglutide are presented in FIG. 17.

small intestine = assay: Intestine weight model in rats; assay type: in vivo, SD rats
Protocol: In the pharmacology study, the conjugates were injected subcutaneously twice, on days 1 and 3 at 1 mg/kg (peptide dose) and intestine weight was performed on day 6. In addition to the PEGylated conjugates, GLP-2-Gly2 was injected at the same dose and regimen for comparison. The average of the intestine weight of each group was compared to that of the vehicle group.
In a different study, several of the PEGylated teduglutide were injected as a single dose at 1 mg/kg and the intestine weight performed on day 6.
Pharmacology and pharmacokinetic studies were performed with the most promising GLP-2 variants to evaluate their efficacy and longevity, respectively. The intestine weight model in rats was conducted to evaluate efficacy, by measuring percent increase of the intestine weight of treated animals over the vehicle group. In this study, the peptides were injected twice, on days 1 and 3 at 1 mg/kg and the intestine weight was conducted on day 6.
PEG20-FMS-V6, PEG20-Fmoc-V6 and PEG40-FMS-V6 were injected once at 1 mg/kg dose on day 1, while group D was also injected twice on days 1 & 3 at 1 mg/kg. The intestine weight was performed on day 6.
Three different reversible PEGylated GLP-2 variants using mutated peptide #4 were injected at 2 mg/kg (peptide dose), once every 6 days for 12 days. On the 12th day the intestine was weighted and compared to the control group. PEG30-FMS-V4 was injected at 0.5 mg/kg as well to evaluate the efficacy dose range.
In addition to PEG30-FMS-V4 and PEG30-Fmoc-V4 that have been pharmacology evaluated by small intestinal weight evaluation (As shown in Example 5), four other reversible PEGylated variant 4 (“V4”) conjugates and two reversible linker-V4 conjugates were synthesized. All the above were injected to 6 normal SD rats/group once at 2 mg/kg (peptide dose), while on the 6th day, animals were scarified, and the small intestine was weighted followed by histopathology evaluation. […] Therefore, slices from three areas of the intestine (duodenum, jejunum and ilium) were stained with hematoxylin and eosin and at least 7 Crypts+Villi length/slice were measured. The averaged Villi+Crypt length of each treatment group (n=6) was compared to the vehicle group (negative control) and calculated as percentage increase over vehicle.
Additional studies were conducted to evaluate the efficacy of the V4 peptide and the reversible MAL-FMS-V4. The long acting effect of V4 and the conjugates were evaluated at Day 6 and Day 10 following treatment (Study reference 15203). All test groups (n=9) were injected SC with 2 mg/kg peptide content at Day 1. At Days 6 and 10, animals were sacrificed and the small intestine underwent histopathology evaluation (6 animals for Day 6, 3 animals for Day 10). FIGS. 12 and 13 show the pharmacology effect of different V4 conjugates and Apraglutide and Glepaglutide as measured by the percent increase of small intestine weight and crypts plus villi length over vehicle, respectively.
To further evaluate the pharmacology efficacy of V4 and Cys-FMS-V4, an experiment was performed to test their acute and prolonged effect on the small intestine (Study reference 15205). In addition, V4 and Cys-FMS-V4 were administrated as a single SC injection on Day 1 at 3 different doses (0.5, 2.0 or 8.0 mg/kg peptide content, 6 rats per group) to assess the dose dependence effect. The pharmacological effect on small intestine weight and villi plus crypts length was measured at Days 3, 7 and 14, and the results are presented in FIGS. 15 and 16. […] It should be noted that this acute response was higher for V4 compared to Cys-FMS-V4 at all 3 dose levels.

[4] = rats, single IV 2 mg/kg peptide content
[5] = SD rats, SC on days 1 and 3 at 1 mg/kg peptide dose (2 injections), intestine weight on day 6
[6] = single dose 1 mg/kg peptide, intestine weight on day 6, average of two studies
[7] = 0.5 mg/kg peptide dose once every 6 days for 12 days, weighed on 12th day
[8] = 2 mg/kg peptide dose once every 6 days for 12 days, weighed on 12th day

Molecule: CCCC[C@H](NC(=O)[C@H](CCC(=O)O)NC(=O)[C@H](CC(=O)O)NC(=O)[C@H](CO)NC(=O)[C@H](Cc1ccccc1)NC(=O)[C@H](CO)NC(=O)CNC(=O)[C@H](CCC(=O)O)NC(=O)CNC(=O)[C@H](Cc1c[nH]cn1)NC(=O)OCC1c2cc(NC(=O)CCN3C(=O)CC(SC[C@H](N)C(=O)O)C3=O)ccc2-c2ccc(S(=O)(=O)O)cc21)C(=O)N[C@@H](CC(N)=O)C(=O)N[C@H](C(=O)N[C@H](C(=O)N[C@@H](CC(C)C)C(=O)N[C@@H](CC(=O)O)C(=O)N[C@@H](CC(C)C)C(=O)N[C@@H](CC(C)C)C(=O)N[C@@H](C)C(=O)N[C@@H](C)C(=O)N[C@@H](CCCNC(=N)N)C(=O)N[C@@H](CC(=O)O)C(=O)N[C@@H](Cc1ccccc1)C(=O)N[C@H](C(=O)N[C@@H](CC(N)=O)C(=O)N[C@@H](Cc1c[nH]c2ccccc12)C(=O)N[C@@H](CC(C)C)C(=O)N[C@H](C(=O)N[C@@H](CCC(N)=O)C(=O)N[C@H](C(=O)N[C@@H](CCCCN)C(=O)N[C@H](C(=O)N[C@H](C(=O)N[C@@H](CC(=O)O)C(N)=O)[C@@H](C)O)[C@@H](C)CC)[C@@H](C)O)[C@@H](C)CC)[C@@H](C)CC)[C@@H](C)CC)[C@@H](C)O (stereo partly drawn) [Cys-FMS-V4] (X1-[X2]HGEGSFSDE[Nle]NTILDLLAARDFINWLIQTKITD-NH2)
Fraction of V4 released from the conjugate (AUC ratio) ([1]; rats, single IV 2 mg/kg): ~35%
Cl/F_obs [1, 4]: 0.064 (μmol/kg)/(μmol/L)/h
Vz/F_obs [1, 4]: 0.260 (μmol/kg)/(μmol/L)
Detectability in blood after IV administration ([1]; rats, single IV 2 mg/kg, 24 hours post injection): could not be detected 24 hours post injection
Fraction of Cys-FMS-V4 converted to V4 following SC administration ([2]; 53.8% SC bioavailability, 67.9% hydrolyzed to V4): approximately 36.5%
Vconj ([2]; Cys-FMS-V4 conjugate): 0.119 L/kg
ka—conj ([2]; Cys-FMS-V4 conjugate): 0.0717 h⁻¹
kconje ([2]; Cys-FMS-V4 conjugate): 0.207 h⁻¹
kh ([2]; Cys-FMS-V4 conjugate): 0.438 h⁻¹
Fconj ([2]; Cys-FMS-V4 conjugate, SC bioavailability fraction): 0.538
% to V4 ([2]; absorbed Cys-FMS-V4 hydrolyzed to V4): 67.9%
half-life ([2]; Cys-FMS-V4 conjugate, Table 15, read-out: t1/2 absorption (converted)): 9.67 h
half-life ([2]; Cys-FMS-V4 conjugate, read-out: t1/2 hydrolysis (converted)): 1.58 h
half-life ([2]; Cys-FMS-V4 conjugate, read-out: t1/2 other pathways (converted)): 3.35 h

Cl/F_obs ([1]; rat, in vivo, iv, 2 mg/kg): 0.042 (μmol/kg)/(μmol/L)/h
Vz/F_obs ([1]; rat, in vivo, iv, 2 mg/kg): 0.487 (μmol/kg)/(μmol/L)
Cl/F obs [3]: 0.034 (μmol/kg)/(μmol/L)/h
Vz/F_obs [3]: 2.19 (μmol/kg)/(μmol/L)
Molecule: CCCC[C@H](NC(=O)[C@H](CCC(=O)O)NC(=O)[C@H](CC(=O)O)NC(=O)[C@H](CO)NC(=O)[C@H](Cc1ccccc1)NC(=O)[C@H](CO)NC(=O)CNC(=O)[C@H](CCC(=O)O)NC(=O)CNC(=O)[C@@H](N)Cc1c[nH]cn1)C(=O)N[C@@H](CC(N)=O)C(=O)N[C@H](C(=O)N[C@H](C(=O)N[C@@H](CC(C)C)C(=O)N[C@@H](CC(=O)O)C(=O)N[C@@H](CC(C)C)C(=O)N[C@@H](CC(C)C)C(=O)N[C@@H](C)C(=O)N[C@@H](C)C(=O)N[C@@H](CCCNC(=N)N)C(=O)N[C@@H](CC(=O)O)C(=O)N[C@@H](Cc1ccccc1)C(=O)N[C@H](C(=O)N[C@@H](CC(N)=O)C(=O)N[C@@H](Cc1c[nH]c2ccccc12)C(=O)N[C@@H](CC(C)C)C(=O)N[C@H](C(=O)N[C@@H](CCC(N)=O)C(=O)N[C@H](C(=O)N[C@@H](CCCCN)C(=O)N[C@H](C(=O)N[C@H](C(=O)N[C@@H](CC(=O)O)C(N)=O)[C@@H](C)O)[C@@H](C)CC)[C@@H](C)O)[C@@H](C)CC)[C@@H](C)CC)[C@@H](C)CC)[C@@H](C)O [V4 (hydrolyzed)] (H-HGEGSFSDE[Nle]NTILDLLAARDFINWLIQTKITD-NH2)

Molecule: PEG30-FMS-(GLP-2-Gly2): teduglutide reversibly PEGylated, PEG30 via FMS linker; heterogenous mixture of N terminus and Lys30 attachment
Average Intestine weight (gr) (small intestine; [5]): 9.5 gr
Increase of intestine weight over vehicle (%) (small intestine; [5]): 73%
Increase of intestine weight over vehicle (%) (small intestine; [6]): 34%

Molecule: PEG30-FMS-V4 (HGEGSFSDE[Nle]NTILDLLAARDFINWLIQTKITD-NH2; also: PEG30-FMS conjugate, place not given here)
Average Intestine weight (gr) (small intestine; [7]): 5.2 gr
Increase of intestine weight over vehicle (%) (small intestine; [7]): −14%
Average Intestine weight (gr) (small intestine; [8]): 6.9 gr
Increase of intestine weight over vehicle (%) (small intestine; [8]): 15%

Molecule: PEG30-NRF-V4 (HGEGSFSDE[Nle]NTILDLLAARDFINWLIQTKITD-NH2; also: PEG30-NRF conjugate, place not given here)
Avg. small intestine weight (gr) (small intestine; normal SD rats, injected once at 2 mg/kg peptide dose, 6th day): 4.0 gr
Small intestine weight increase over vehicle (%) (small intestine; normal SD rats, injected once at 2 mg/kg peptide dose, 6th day, MAL-FMS-V4 compared to Vehicle 2): −8.0%

Molecule: PEG40-EMCS-(GLP-2-Gly2): non-reversible PEGylation (PEG40, EMCS) conjugated to GLP-2-Gly2
Average Intestine weight (gr) (small intestine; [5]): 6.6 gr
Increase of intestine weight over vehicle (%) (small intestine; [5]): 19%

Molecule: PEG40-FMS-(GLP-2-Gly2): teduglutide reversibly PEGylated, PEG40 via FMS linker; heterogenous mixture of N terminus and Lys30 attachment
Average Intestine weight (gr) (small intestine; [5]): 9.3 gr
Increase of intestine weight over vehicle (%) (small intestine; [5]): 70%
Increase of intestine weight over vehicle (%) (small intestine; [6]): 27%

Molecule: PEG40-Fmoc-(GLP-2-Gly2): teduglutide reversibly PEGylated, PEG40 via Fmoc linker; heterogenous mixture of N terminus and Lys30 attachment
Average Intestine weight (gr) (small intestine; [8]): 6.9 gr
Increase of intestine weight over vehicle (%) (small intestine; [8]): 14%
Average Intestine weight (gr) (small intestine; [5]): 9.4 gr
Increase of intestine weight over vehicle (%) (small intestine; [5]): 72%
Increase of intestine weight over vehicle (%) (small intestine; [6]): 31%

Molecule: PEG(Branch20)-FMS-(GLP-2-Gly2): teduglutide reversibly PEGylated with branched PEG via FMS linker; tables say Branch20, b275 Branched30
Average Intestine weight (gr) (small intestine; [5]): 7.8 gr
Increase of intestine weight over vehicle (%) (small intestine; [5]): 42%

Molecule: PEGBranched40-FMS-(GLP-2-Gly2): teduglutide reversibly PEGylated with branched PEG40 via FMS linker
Average Intestine weight (gr) (small intestine; [5]): 8.1 gr
Increase of intestine weight over vehicle (%) (small intestine; [5]): 48%
Increase of intestine weight over vehicle (%) (small intestine; [6]): 22%
